# Results from patent US8580825B2, “Oxadiazole inhibitors of leukotriene production” (Boehringer Ingelheim International GmbH, priority 2010, dated 2013).
# Tests used:
# [1] = biological target: T1, recombinant human FLAP protein (Homo sapiens, UniProt P20292); test: FLAP binding assay (Scintillation Proximity Assay, displacement of [125I]L-691,831); details: for IC50: read-out: FLAP SPA IC50
# T1 construct: made in house; host or cells: Sf9 insect cells (100,000xg membrane fraction used)
# T1 sequence (P20292 1-161): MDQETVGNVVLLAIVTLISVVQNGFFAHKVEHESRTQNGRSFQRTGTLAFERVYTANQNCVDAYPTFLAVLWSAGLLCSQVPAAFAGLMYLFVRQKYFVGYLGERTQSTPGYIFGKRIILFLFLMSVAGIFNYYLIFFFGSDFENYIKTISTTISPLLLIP
# Summary of the method: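 Scintillation proximity displacement of [125I]L-691,831 (0.08 nM) from membranes of sf9 cells expressing recombinant human FLAP (5 μg/well) on WGA SPA beads, pH 7.5 Tris buffer. Plates shaken 2 h before counting. Non-specific binding defined with 10 μM unlabelled L-691,831.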
# [2] = tested on: synthesis of LTB4 in human whole blood; test: human whole blood LTB4 production inhibition assay; type: cell-based; details: calcimycin stimulated, read-out: hWB LTB4 IC50
# Summary of the method: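 Heparinized human whole blood was preincubated with compound for 15 min at 37° C, then stimulated with calcimycin (20 μM final, in PBS pH 7.4) for a further 30 min at 37° C. Plasma LTB4 was quantified by antibody-based homogeneous time-resolved fluorescence.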
Structure (SMILES),IC50 [1] [nM],IC50 [2] [nM],inhibition at 1 µM ([1]; read-out: FLAP SPA inhibition at 1 uM) [%]
"C[C@](c1ccc(-c2cnc(N)nc2)nc1)(c1noc(-c2cnn(C3COC3)c2)n1)C1CC1 [Example 79, 5-{5-[(1S)-1-cyclopropyl-1-{5-[1-(oxetan-3-yl)-1H-pyrazol-4-yl]-1,2,4-oxadiazol-3-yl}ethyl]pyridin-2-yl}pyrimidin-2-amine]",140,650,
"CNC(=O)Cn1cc(-c2nc(C(C)(c3ccc(-c4cnc(N)nc4)nc3)C(C)C)no2)cn1 (stereo not shown) [Example 80, 2-[4-(3-{2-[6-(2-aminopyrimidin-5-yl)pyridin-3-yl]-3-methylbutan-2-yl}-1,2,4-oxadiazol-5-yl)-1H-pyrazol-1-yl]-N-methylacetamide]",5.6,230,
"CN(C)C(=O)Cn1cc(-c2nc([C@@](C)(c3ccc(-c4cnc(N)nc4)nc3)C3CC3)no2)cn1 [Example 83, 2-[4-(3-{(1R)-1-[6-(2-aminopyrimidin-5-yl)pyridin-3-yl]-1-cyclopropylethyl}-1,2,4-oxadiazol-5-yl)-1H-pyrazol-1-yl]-N,N-dimethylacetamide]",76,200,
"CN(C)C(=O)Cn1cc(-c2nc([C@](C)(c3ccc(-c4cnc(N)nc4)nc3)C3CC3)no2)cn1 [Example 84, 2-[4-(3-{(1S)-1-[6-(2-aminopyrimidin-5-yl)pyridin-3-yl]-1-cyclopropylethyl}-1,2,4-oxadiazol-5-yl)-1H-pyrazol-1-yl]-N,N-dimethylacetamide]",,2900,45
"CC(C)C(C)(c1ccc(-c2cnc(N)nc2)nc1)c1noc(-c2cn(CC(C)(C)O)cn2)n1 (stereo not shown) [Example 85, 1-[4-(3-{2-[6-(2-aminopyrimidin-5-yl)pyridin-3-yl]-3-methylbutan-2-yl}-1,2,4-oxadiazol-5-yl)-1H-imidazol-1-yl]-2-methylpropan-2-ol]",350,1900,
"Cn1cc(-c2nc(C(C)(C)c3ccc(-c4cnc(N)nc4)nc3)no2)cn1 [Example 86, 5-(5-{2-[5-(1-methyl-1H-pyrazol-4-yl)-1,2,4-oxadiazol-3-yl]propan-2-yl}pyridin-2-yl)pyrimidin-2-amine]",140,790,
"CC(C)(c1ccc(-c2cnc(N)nc2)nc1)c1noc(-c2cn[nH]c2)n1 [Example 87, 5-(5-{2-[5-(1H-pyrazol-4-yl)-1,2,4-oxadiazol-3-yl]propan-2-yl}pyridin-2-yl)pyrimidin-2-amine]",670,> 5000,
"CC(C)(O)Cn1cc(-c2nc(C(C)(C)c3ccc(-c4cnc(N)nc4)nc3)no2)cn1 [Example 88, 1-[4-(3-{2-[6-(2-aminopyrimidin-5-yl)pyridin-3-yl]propan-2-yl}-1,2,4-oxadiazol-5-yl)-1H-pyrazol-1-yl]-2-methylpropan-2-ol]",370,1500,
"COCCn1cc(-c2nc(C(C)(C)c3ccc(-c4cnc(N)nc4)nc3)no2)cn1 [Example 89, 5-[5-(2-{5-[1-(2-methoxyethyl)-1H-pyrazol-4-yl]-1,2,4-oxadiazol-3-yl}propan-2-yl)pyridin-2-yl]pyrimidin-2-amine]",230,880,
"COC(=O)C(C)(C)n1cc(-c2nc(C(C)(C)c3ccc(-c4cnc(N)nc4)nc3)no2)cn1 [Example 90, methyl 2-[4-(3-{2-[6-(2-aminopyrimidin-5-yl)pyridin-3-yl]propan-2-yl}-1,2,4-oxadiazol-5-yl)-1H-pyrazol-1-yl]-2-methylpropanoate]",140,950,
"COCCOCCn1cc(-c2nc(C(C)(C)c3ccc(-c4cnc(N)nc4)nc3)no2)cn1 [Example 91, 5-{5-[2-(5-{1-[2-(2-methoxyethoxy)ethyl]-1H-pyrazol-4-yl}-1,2,4-oxadiazol-3-yl)propan-2-yl]pyridin-2-yl}pyrimidin-2-amine]",300,1500,

# Other lines, results leading:
IC50 [1] [nM],IC50 [2] [nM],inhibition at 1 µM ([1]; read-out: FLAP SPA inhibition at 1 uM) [%],Structure (SMILES)
15,92,,"CC(C)Nc1cnc(-c2nc([C@@](C)(c3ccc(-c4cnc(N)nc4)nc3)C(C)C)no2)cn1 [Example 92, 5-[5-{(R)-1-[5-(5-Isopropylamino-pyrazin-2-yl)-[1,2,4]oxadiazol-3-yl]-1,2-dimethyl-propyl}-pridin-2-yl)-pyrimidin-2-ylamine]"
21,28,,"CC(C)Nc1cnc(-c2nc([C@](C)(c3ccc(-c4cnc(N)nc4)nc3)C(C)C)no2)cn1 [Example 93, 5-(5-{(S)-1-[5-(5-Isopropylamino-pyrazin-2-yl)-[1,2,4]oxadiazol-3-yl]-1,2-dimethyl-propyl}-pyridin-2-yl)-pyrimidin-2-ylamine]"
26,74,,"CC(C)[C@](C)(c1ccc(-c2cnc(N)nc2)nc1)c1noc(-c2cnc(NC(C)(C)CO)cn2)n1 [Example 94, 2-[5-(3-{(R)-1-[6-(2-Amino-pyrimidin-5-yl)-pyridin-3-yl]-1,2-dimethyl-propyl}-[1,2,4]oxadiazol-5-yl)-pyrazin-2-ylamino]-2-methyl-propan-1-ol]"
92,210,,"CC(C)[C@@](C)(c1ccc(-c2cnc(N)nc2)nc1)c1noc(-c2cnc(NC(C)(C)CO)cn2)n1 [Example 95, 2-[5-(3-{(S)-1-[6-(2-Amino-pyrimidin-5-yl)-pyridin-3-yl]-1,2-dimethyl-propyl}-[1,2,4]oxadiazol-5-yl)-pyrazin-2-ylamino]-2-methyl-propan-1-ol]"
9.9,240,,"CC(C)[C@](C)(c1ccc(-c2cnc(N)nc2)nc1)c1noc(-c2cnn(C3CCS(=O)(=O)C3)c2)n1 (stereo partly drawn) [Example 96, 5-[5-((R)-1-{5-[1-(1,1-Dioxo-tetrahydro-116-thiophen-3-yl)-1H-pyrazol-4-yl]-[1,2,4]oxadiazol-3-yl}-1,2-dimethyl-propyl)-pyridin-2-yl]-pyrimidin-2-ylamine]"
7.9,30,,"CC(C)[C@](C)(c1ccc(-c2cnc(N)nc2)nc1)c1noc(-c2cnn(CCN(C)C)c2)n1 [Example 97, 5-[5-((R)-1-{5-[1-(2-Dimethylamino-ethyl)-1H-pyrazol-4-yl]-[1,2,4]oxadiazol-3-yl}-1,2-dimethyl-propyl)-pyridin-2-yl]-pyrimidin-2-ylamine]"
26,500,,"CC(c1ccc(-c2ccc(N)nc2)nc1)(c1noc(-c2cn[nH]c2)n1)C1CC1 (stereo not shown) [Example 98, 5-{1-Cyclopropyl-1-[5-(1H-pyrazol-4-yl)-[1,2,4]oxadiazol-3-yl]-ethyl}-[2,3′]bipyridinyl-6′-ylamine]"
32,150,,"CN(C)CCn1cc(-c2nc([C@@](C)(c3ccc(-c4cnc(N)nc4)nc3)C3CC3)no2)cn1 [Example 99, 5-[5-((R)-1-Cyclopropyl-1-{5-[1-(2-dimethylamino-ethyl)-1H-pyrazol-4-yl]-[1,2,4]oxadiazol-3-yl}-ethyl)-pyridin-2-yl]-pyrimidin-2-ylamine]"
53,210,,"CC(C)(O)Cn1cc(-c2nc([C@@](C)(c3ccc(-c4cnc(N)cn4)nc3)C3CC3)no2)cn1 [Example 100, 1-[4-(3-{(R)-1-[6-(5-Amino-pyrazin-2-yl)-pyridin-3-yl]-1-cyclopropyl-ethyl}-[1,2,4]oxadiazol-5-yl)-pyrazol-1-yl]-2-methyl-propan-2-ol]"
280,990,,"CC(C)(O)Cn1cc(-c2nc([C@](C)(c3ccc(-c4cnc(N)cn4)nc3)C3CC3)no2)cn1 [Example 101, 1-[4-(3-{(S)-1-[6-(5-Amino-pyrazin-2-yl)-pyridin-3-yl]-1-cyclopropyl-ethyl}-[1,2,4]oxadiazol-5-yl)-pyrazol-1-yl]-2-methyl-propan-2-ol]"
13,89,,"CC(C)(C)NC(=O)Cn1cc(-c2nc([C@@](C)(c3ccc(-c4cnc(N)nc4)nc3)C3CC3)no2)cn1 [Example 102, 2-[4-(3-{(R)-1-[6-(2-Amino-pyrimidin-5-yl)-pyridin-3-yl]-1-cyclopropyl-ethyl}-[1,2,4]oxadiazol-5-yl)-pyrazol-1-yl]-N-tert-butyl-acetamide]"
5.7,17,,"COCCn1cc(-c2nc([C@@](C)(c3ccc(-c4cnc(N)cn4)nc3)C(C)C)no2)cn1 [Example 104, 5-[5-((R)-1-{5-[1-(2-Methoxy-ethyl)-1H-pyrazol-4-yl]-[1,2,4]oxadiazol-3-yl}-1,2-dimethyl-propyl)-pyridin-2-yl]-pyrazin-2-ylamine]"
7.8,450,,"CC(C)[C@](C)(c1ccc(-c2cnc(N)cn2)nc1)c1noc(-c2cnc(N3CCNCC3)cn2)n1 [Example 105, 5-(5-{(R)-1,2-Dimethyl-1-[5-(3,4,5,6-tetrahydro-2H-[1,2′]bipyrazinyl-5′-yl)-[1,2,4]oxadiazol-3-yl]-propyl}-pyridin-2-yl)-pyrazin-2-ylamine]"
10,30,,"CN(C(=O)Cn1cc(-c2nc([C@@](C)(c3ccc(-c4cnc(N)nc4)nc3)C3CC3)no2)cn1)C(C)(C)C [Example 106, 2-[4-(3-{(R)-1-[6-(2-Amino-pyrimidin-5-yl)-pyridin-3-yl]-1-cyclopropyl-ethyl}-[1,2,4]oxadiazol-5-yl)-pyrazol-1-yl]-N-tert-butyl-N-methyl-acetamide]"
72,220,,"CO[C@@H]1CCN(C(=O)Cn2cc(-c3nc([C@@](C)(c4ccc(-c5cnc(N)nc5)nc4)C4CC4)no3)cn2)C1 [Example 107, 2-[4-(3-{(R)-1-[6-(2-Amino-pyrimidin-5-yl)-pyridin-3-yl]-1-cyclopropyl-ethyl}-[1,2,4]oxadiazol-5-yl)-pyrazol-1-yl]-1-((R)-3-methoxy-pyrrolidin-1-yl)-ethanone]"
